Where “and” joins values, the source holds several entries; their conditions need not be identical. Equal values may be shown once. Toxic doses and inconclusive results are not listed.
System: L1210 leukemia ip in BDF1 mice, survival T/C
Experiment: NCI In Vivo Anticancer Drug Screen. Data for tumor model L1210 Leukemia (intraperitoneal) in B6D2F1 (BDF1) mice
Conditions: endpoint: mean survival time, higher = longer survival
Outline: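 Ratio derived from survival: compound-dosed mice over vehicle-dosed mice, all bearing a transplantable tumor.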

[1] = dose: 100.0 mg/kg/injection, schedule: Q04DX003 (ip), vehicle: saline
[2] = dose: 200.0 mg/kg/injection, schedule: Q04DX003 (ip), vehicle: saline
[3] = dose: 100.0 mg/kg/injection, schedule: Q01DX001 (ip), vehicle: saline
[4] = dose: 200.0 mg/kg/injection, schedule: Q01DX001 (ip), vehicle: saline
[5] = dose: 400.0 mg/kg/injection, schedule: Q01DX001 (ip), vehicle: saline
[6] = dose: 100.0 mg/kg/injection, schedule: Q01DX009 (ip), vehicle: saline with Tween-80
[7] = dose: 200.0 mg/kg/injection, schedule: Q01DX009 (ip), vehicle: saline with Tween-80
[8] = dose: 400.0 mg/kg/injection, schedule: Q01DX009 (ip), vehicle: saline with Tween-80
[9] = dose: 100.0 mg/kg/injection, schedule: Q01DX001 (ip), vehicle: carboxymethylcellulose (CMC)
[10] = dose: 200.0 mg/kg/injection, schedule: Q01DX001 (ip), vehicle: carboxymethylcellulose (CMC)
[11] = dose: 50.0 mg/kg/injection, schedule: Q01DX001 (ip), vehicle: carboxymethylcellulose (CMC)
[12] = dose: 100.0 mg/kg/injection, schedule: Q01DX009 (ip), vehicle: Klucel (hydroxypropylcellulose) (HPC)
[13] = dose: 100.0 mg/kg/injection, schedule: Q04DX003 (ip), vehicle: Klucel (hydroxypropylcellulose) (HPC)
[14] = dose: 200.0 mg/kg/injection, schedule: Q01DX009 (ip), vehicle: Klucel (hydroxypropylcellulose) (HPC)
[15] = dose: 200.0 mg/kg/injection, schedule: Q04DX003 (ip), vehicle: Klucel (hydroxypropylcellulose) (HPC)
[16] = dose: 400.0 mg/kg/injection, schedule: Q01DX009 (ip), vehicle: Klucel (hydroxypropylcellulose) (HPC)
[17] = dose: 400.0 mg/kg/injection, schedule: Q04DX003 (ip), vehicle: Klucel (hydroxypropylcellulose) (HPC)
[18] = dose: 100.0 mg/kg/injection, schedule: Q01DX001 (ip), vehicle: other
[19] = dose: 200.0 mg/kg/injection, schedule: Q01DX001 (ip), vehicle: other
[20] = dose: 400.0 mg/kg/injection, schedule: Q01DX001 (ip), vehicle: other

O=C(O)c1ccc(NC(C(=O)c2ccccc2)c2ccccc2)cc1 (stereo not given)
T/C (dose: 50.0 mg/kg/injection, schedule: Q01DX001 (ip), vehicle: Klucel (hydroxypropylcellulose) (HPC)): 96 % of control | T/C (dose: 100.0 mg/kg/injection, schedule: Q01DX001 (ip), vehicle: Klucel (hydroxypropylcellulose) (HPC)): 107 % of control | T/C (dose: 200.0 mg/kg/injection, schedule: Q01DX001 (ip), vehicle: Klucel (hydroxypropylcellulose) (HPC)): 94 % of control

C/C=N/N(C)C=O
T/C [1]: 104 % of control | T/C [2]: 119 % of control

CCCCCOc1cc([N+](=O)[O-])c(OCCCCC)cc1N1CCN(C(C)=O)CC1
T/C (dose: 100.0 mg/kg/injection, schedule: Q04DX003 (sc), vehicle: olive oil, sesame oil, peanut oil): 100 % of control | T/C (dose: 200.0 mg/kg/injection, schedule: Q04DX003 (sc), vehicle: olive oil, sesame oil, peanut oil): 96 % of control | T/C (dose: 400.0 mg/kg/injection, schedule: Q04DX003 (sc), vehicle: olive oil, sesame oil, peanut oil): 105 % of control

O=C1c2ccccc2C(=O)C1(Br)Br
T/C (dose: 50.0 mg/kg/injection, schedule: Q01DX001 (ip), vehicle: saline): 106 % of control | T/C [3]: 97 % of control | T/C [4]: 101 % of control

O=[N+]([O-])c1cc(Cl)c(Cl)cc1NCCCO
T/C [3]: 95 % of control | T/C (dose: 100.0 mg/kg/injection, schedule: Q01DX009 (ip), vehicle: acetone): 95 % of control | T/C [1]: 91 % of control | T/C [4]: 96 % of control | T/C (dose: 200.0 mg/kg/injection, schedule: Q01DX009 (ip), vehicle: acetone): 97 % of control | T/C [2]: 96 % of control | T/C [5]: 92 % of control | T/C (dose: 400.0 mg/kg/injection, schedule: Q04DX003 (ip), vehicle: saline): 89 % of control

Cn1c(=O)n2n(c1=O)C1C=CC2C2C(Br)C(Br)C21 (stereo not given)
T/C [6]: 97 % of control | T/C (dose: 100.0 mg/kg/injection, schedule: Q04DX003 (ip), vehicle: saline with Tween-80): 102 % of control | T/C [7]: 101 % of control | T/C (dose: 200.0 mg/kg/injection, schedule: Q04DX003 (ip), vehicle: saline with Tween-80): 94 % of control | T/C [8]: 103 % of control | T/C (dose: 400.0 mg/kg/injection, schedule: Q04DX003 (ip), vehicle: saline with Tween-80): 105 % of control

O=C(O)C(=O)/C=C/c1cccc([N+](=O)[O-])c1
T/C [3]: 96 % of control | T/C (dose: 100.0 mg/kg/injection, schedule: Q01DX009 (ip), vehicle: saline): 106 % of control | T/C [4]: 96 % of control | T/C (dose: 200.0 mg/kg/injection, schedule: Q01DX009 (ip), vehicle: saline): 95 % of control | T/C [5]: 102 % of control

CCCCCCc1cc(N=Nc2ccc(S(=O)(=O)Nc3nnc(C)s3)cc2)c(O)cc1O
T/C [9]: 98 % of control | T/C [10]: 95 % of control

COc1cc(C=Nc2cc(Br)c(O)c(Br)c2)ccc1N(CCCl)CCCl
T/C (dose: 6.4 mg/kg/injection, schedule: Q01DX009 (ip), vehicle: carboxymethylcellulose (CMC)): 101 % of control | T/C (dose: 9.8 mg/kg/injection, schedule: Q01DX001 (ip), vehicle: carboxymethylcellulose (CMC)): 104 % of control | T/C (dose: 14.6 mg/kg/injection, schedule: Q01DX009 (ip), vehicle: carboxymethylcellulose (CMC)): 103 % of control and 111 % of control | T/C (dose: 22.0 mg/kg/injection, schedule: Q01DX001 (ip), vehicle: carboxymethylcellulose (CMC)): 177 % of control | T/C (dose: 22.0 mg/kg/injection, schedule: Q01DX009 (ip), vehicle: carboxymethylcellulose (CMC)): 94 % of control | T/C (dose: 25.0 mg/kg/injection, schedule: Q01DX001 (ip), vehicle: carboxymethylcellulose (CMC)): 153 % of control | T/C [11]: 161 % of control

O=C1c2cccc3cccc(c23)C(=O)N1CCCCCCCCCCN1C(=O)c2cccc3cccc(c23)C1=O
T/C (dose: 50.0 mg/kg/injection, schedule: Q01DX009 (ip), vehicle: gum acacia): 93 % of control | T/C (dose: 100.0 mg/kg/injection, schedule: Q01DX009 (ip), vehicle: gum acacia): 94 % of control and 89 % of control | T/C (dose: 100.0 mg/kg/injection, schedule: Q04DX003 (ip), vehicle: gum acacia): 93 % of control | T/C (dose: 200.0 mg/kg/injection, schedule: Q04DX003 (ip), vehicle: gum acacia): 86 % of control | T/C (dose: 400.0 mg/kg/injection, schedule: Q01DX009 (ip), vehicle: gum acacia): 89 % of control | T/C (dose: 400.0 mg/kg/injection, schedule: Q04DX003 (ip), vehicle: gum acacia): 90 % of control

CC1(CCOCc2ccccc2)NC(=O)N(CCC#N)C1=O (stereo not given)
T/C [11]: 102 % of control | T/C [9]: 94 % of control | T/C [10]: 94 % of control | T/C (dose: 400.0 mg/kg/injection, schedule: Q01DX001 (ip), vehicle: carboxymethylcellulose (CMC)): 91 % of control

CCC1C(=O)NCCNC1=O
T/C (dose: 75.0 mg/kg/injection, schedule: Q01DX001 (ip), vehicle: saline): 106 % of control | T/C (dose: 150.0 mg/kg/injection, schedule: Q01DX001 (ip), vehicle: saline): 93 % of control | T/C (dose: 300.0 mg/kg/injection, schedule: Q01DX001 (ip), vehicle: saline): 96 % of control

COc1ccc(C(=O)/C=C/c2ccc3c(c2)OCO3)cc1OC
T/C [12]: 87 % of control | T/C [13]: 98 % of control | T/C [14]: 90 % of control | T/C [15]: 98 % of control | T/C [16]: 90 % of control | T/C [17]: 96 % of control

CC(=O)c1ccc(C#N)cc1.[Co+3].[NH2-].[NH2-].[NH2-].[NH2-].[NH2-].[O-][Cl+3]([O-])([O-])O
T/C (dose: 100.0 mg/kg/injection, schedule: Q04DX002 (ip), vehicle: saline): 104 % of control | T/C (dose: 200.0 mg/kg/injection, schedule: Q04DX002 (ip), vehicle: saline): 111 % of control | T/C (dose: 400.0 mg/kg/injection, schedule: Q04DX002 (ip), vehicle: saline): 108 % of control

O=C(Nc1cccc(O)c1)Oc1ccccc1
T/C [6]: 98 % of control | T/C [7]: 90 % of control | T/C [8]: 89 % of control

COC(C)(C)C(N)C(=O)O (stereo not given)
T/C [18]: 102 % of control | T/C (dose: 100.0 mg/kg/injection, schedule: Q04DX003 (ip), vehicle: other): 120 % of control | T/C [19]: 102 % of control | T/C (dose: 200.0 mg/kg/injection, schedule: Q04DX003 (ip), vehicle: other): 114 % of control | T/C [20]: 102 % of control | T/C (dose: 400.0 mg/kg/injection, schedule: Q04DX003 (ip), vehicle: other): 96 % of control

Cc1ccc(S(=O)(=O)NC(CSSCC(NS(=O)(=O)c2ccc(C)cc2)C(=O)OC(C)(C)C)C(=O)OC(C)(C)C)cc1 (stereo not given)
T/C [12]: 101 % of control | T/C [13]: 98 % of control | T/C [14]: 106 % of control | T/C [15]: 101 % of control | T/C [16]: 95 % of control | T/C [17]: 98 % of control

CC(=O)CC(=O)Nc1ccc(C)cc1C
T/C [13]: 102 % of control | T/C [15]: 98 % of control | T/C [17]: 115 % of control

CCCC(C)(C)C(=O)Nc1cccc(OC(=O)NC(C)C)c1
T/C [6]: 96 % of control | T/C [7]: 86 % of control | T/C [8]: 91 % of control

CCCCCCCCCCCCC(=O)[O][Hg][c]1ccccc1
T/C (dose: 9.38 mg/kg/injection, schedule: Q01DX001 (ip), vehicle: steriod suspending solution): 96 % of control | T/C (dose: 18.75 mg/kg/injection, schedule: Q01DX001 (ip), vehicle: steriod suspending solution): 98 % of control

CCCCCCCCCCCC(=O)N/N=C(\c1ccccc1)c1ccc(Cl)cc1
T/C (dose: 100.0 mg/kg/injection, schedule: Q04DX002 (ip), vehicle: Klucel (hydroxypropylcellulose) (HPC)): 103 % of control | T/C (dose: 200.0 mg/kg/injection, schedule: Q04DX002 (ip), vehicle: Klucel (hydroxypropylcellulose) (HPC)): 103 % of control | T/C (dose: 400.0 mg/kg/injection, schedule: Q04DX002 (ip), vehicle: Klucel (hydroxypropylcellulose) (HPC)): 122 % of control

C=CCOC(=O)N[C@H](CC(C)C)C(N)=O
T/C [18]: 94 % of control | T/C [19]: 110 % of control | T/C [20]: 100 % of control

— PubChem BioAssay AID248 (DTP/NCI, 2004)
